In publication PMC5975062 (Alzheimer's & Dementia : Translational Research & Clinical …, 2015):

How the values were obtained:
[1] = Phase 1 CSF pharmacokinetics; assay type: in vivo, human; conditions: for concentration at 12 h: Min (C 12 h)
[2] = Phase 1 plasma pharmacokinetics after single and multiple oral doses; assay type: in vivo, human; conditions: for AUC(0-t) / half-life / Tmax: human, plasma, oral; for AUC(0-t): plasma AUC0–12 h
[3] = 50 mg bid solution, fasted, nonelderly, day 11, geo mean (CV%)

In the case of `CCCOc1ccc([C@H]2CNC(=O)N2c2ccc3[nH]cnc3c2)cc1` [PQ912], the “CSF AUC(0–12 h)” value ([1]; 20 mg bid solution, fasted, nonelderly, day 11, estimated as plasma AUC × 0.05) is reported as 6 ng·h/mL, the “CSF concentration, Max (C 3 h)” value ([1]; 20 mg bid solution, fasted, nonelderly, day 11, estimated, mean × 1.6) is reported as 0.8 ng/mL and the “CSF AUC(0–12 h)” value [1, 3] is reported as 17.3 (34.8) ng.h/mL. For the same compound, the “CSF concentration, Max (C 3 h)” value [1, 3] was 2.32 (34.5) ng/mL, the “CSF AUC(0–12 h)” value ([1]; 100 mg bid solution, fed, nonelderly, day 11, geo mean (CV%)) was 44.7 (27.2) ng.h/mL and the “CSF AUC(0–12 h)” value ([1]; 200 mg bid capsule, fasted, elderly, day 7, estimated as plasma AUC × 0.05) was 195 ng·h/mL. The “CSF concentration, Max (C 3 h)” value ([1]; 200 mg bid capsule, fasted, elderly, day 7, estimated, mean × 1.6) was 25.9 ng/mL, the “CSF AUC(0–12 h)” value ([1]; 200 mg bid solution, fasted, nonelderly, day 11, estimated as plasma AUC × 0.05) was 91.7 ng·h/mL and the “CSF concentration, Max (C 3 h)” value ([1]; 300 mg bid capsule, fasted, elderly, day 7, estimated, mean × 1.6) was 37.7 ng/mL. The “CSF AUC(0–12 h)” value ([1]; 300 mg bid capsule, fasted, elderly, day 7, geo mean (CV%)) was 275 (40.7) ng.h/mL, the “CSF AUC(0–12 h)” value ([1]; 400 mg bid capsule, fasted, nonelderly, day 11, geo mean (CV%)) was 236 (25.0) ng.h/mL and the “CSF concentration, Max (C 3 h)” value ([1]; 500 mg bid capsule, fed, nonelderly, day 11, estimated, mean × 1.6) was 62.0 ng/mL. For the same compound, the “CSF concentration, Max (C 3 h)” value ([1]; 500 mg bid tablet, fasted, elderly, day 11, estimated, mean × 1.6) was 79.0 ng/mL, the “CSF AUC(0–12 h)” value ([1]; 500 mg bid tablet, fasted, elderly, day 11, geo mean (CV%)) was 530 (36.6) ng.h/mL and the “CSF AUC(0–12 h)” value ([1]; 800 mg bid tablet, fasted, elderly, day 11, estimated as plasma AUC × 0.05) was 1230 ng·h/mL. The “CSF concentration, Max (C 3 h)” value ([1]; 800 mg bid tablet, fasted, elderly, day 11, estimated, mean × 1.6) was 163.7 ng/mL, the concentration at 3 h ([1]; human, CSF, oral, 100 mg, CSF concentration, Max (C 3 h), 100 mg bid solution, fed, nonelderly, day 11, geo mean (CV%)) was 6.02 ng/mL and the concentration at 12 h ([1]; human, CSF, oral, 100 mg, CSF concentration, 100 mg bid solution, fed, nonelderly, day 11, geo mean (CV%)) was 1.92 ng/mL. It also gave a half-life ([1]; human, CSF, oral, 100 mg, CSF t1/2, 100 mg bid solution, fed, nonelderly, day 11, geo mean (CV%)) of 6.38 h, a concentration at 12 h ([1]; human, CSF, oral, 200 mg, CSF concentration, 200 mg bid capsule, fasted, elderly, day 7, estimated, mean × 0.53) of 8.6 ng/mL and a concentration at 12 h ([1]; human, CSF, oral, 500 mg, CSF concentration, 500 mg bid capsule, fed, nonelderly, day 11, estimated, mean × 0.53) of 20.5 ng/mL. The “CSF trough lower than peak levels” value ([1]; repeated bid dosing ≥50 mg) was “approximately threefold lower”, the “time of highest concentrations in the CSF” value ([1]; single oral solution, CSF sampling 1, 1.5 and 3 hours) was 3 h and the AUC(0-t) ([2]; 100 mg, 100 mg bid solution, fed, nonelderly, day 11, geo mean (CV%)) was 969 ng·h/mL. For the same compound, the half-life ([2]; 100 mg, plasma t1/2 (apparent terminal), 100 mg bid solution, fed, nonelderly, day 11, geo mean (CV%)) was 3.46 h, the half-life ([2]; 100 mg, plasma t1/2,eff (2–12 h postdose), 100 mg bid solution, fed, nonelderly, day 11, geo mean (CV%)) was 2.44 h and the Tmax ([2]; 100 mg, plasma tmax, 100 mg bid solution, fed, nonelderly, day 11, median (min–max)) was 0.75 h. For the same compound, the AUC(0-t) ([2]; 200 mg, 200 mg bid capsule, fasted, elderly, day 7, geo mean (CV%)) was 3890 ng·h/mL, the half-life ([2]; 200 mg, plasma t1/2 (apparent terminal), 200 mg bid capsule, fasted, elderly, day 7, geo mean (CV%)) was 7.55 h and the half-life ([2]; 200 mg, plasma t1/2,eff (2–12 h postdose), 200 mg bid capsule, fasted, elderly, day 7, geo mean (CV%)) was 3.08 h. For the same compound, the Tmax ([2]; 200 mg, plasma tmax, 200 mg bid capsule, fasted, elderly, day 7, median (min–max)) was 1 h, the AUC(0-t) ([2]; 500 mg, 500 mg bid capsule, fed, nonelderly, day 11, geo mean (CV%)) was 9300 ng·h/mL and the half-life ([2]; 500 mg, plasma t1/2 (apparent terminal), 500 mg bid capsule, fed, nonelderly, day 11, geo mean (CV%)) was 6.82 h. It also gave a half-life ([2]; 500 mg, plasma t1/2,eff (2–12 h postdose), 500 mg bid capsule, fed, nonelderly, day 11, geo mean (CV%)) of 3.01 h, a Tmax ([2]; 500 mg, plasma tmax, 500 mg bid capsule, fed, nonelderly, day 11, median (min–max)) of 3 h and a Tmax ([2]; mean plasma tmax, single 10–400 mg solution, fasted) of 0.5 h. For the same compound, the half-life ([2]; plasma t1/2,eff, after bid doses) was 2 to 3 h, the Tmax ([2]; plasma tmax, generally observed, all formulations and doses) was 0.5 to 1.5 h and the Tmax ([2]; plasma tmax, repeated dosing, compared with CSF) was 0.5 to 1 h. The half-life ([2]; terminal plasma t1/2, single doses, across dose range) was 2 to 8 h, the time to steady-state ([2]; multiple bid dosing, morning trough plasma concentrations) was ≤ 2 days and the “plasma trough (12 hours postdose) lower than peak levels” value ([2]; repeated bid dosing ≥50 mg, steady state) was “up to 61 fold”. The “increase in AUC with ninefold increase in dose” value ([2]; single doses 200–1800 mg) was 24 fold.
